The subject of data set [1] is KHYG-1 NK cell-mediated lysis of K562 cells. Kind of data set: Inhibition of KHYG-1 NK cell-mediated lysis of K562 cells (51Cr release). Conditions: K562 target cells, Effector:Target 2:1, 4 hours 37° C. Type of data set: cell-based. The procedure:
Inhibition of KHYG-1 NK Cell-Mediated lysis of K562 Cells
KHYG-1 cells were washed and resuspended in RPMI+0.1% BSA at 4×10^5 cells/ml and 50 μl of KHYG-1 cells were dispensed to each well of a 96-well V-bottom, plate. Test compounds were added to KHYG-1 cells at various concentrations up to 20 μM and incubated at RT for 20 minutes. 1×10^6 K562 target cells were labelled with 75 μCi ^51Cr in 200 μl RPMI for 90 mins at 37° C., cells were washed as described above and resuspended in 5 ml RPMI+0.1% BSA. 50 μl of ^51Cr labelled K562 leukemia target cells were added to each well of the KHYG-1 plate (Effector:Target 2:1) and incubated at 37° C. for 4 hours. ^51Cr release was assayed using a Skatron Harvesting Press and radioactivity estimated on a Wallac Wizard 1470 Automatic Gamma counter (Turku, Finland). The percentage of specific cytotoxicity was calculated by the formula: […]
and expressed as the mean of triplicate assays +/−standard error of the mean.

The next data set concerns KHYG-1 NK cells. Kind of data set: Toxicity to KHYG-1 NK cells (trypan blue viability). As to conditions: viable cells as percentage of total (% viability), 18 to 24 hours. The class given is cell-based. The procedure: Toxicity to KHYG-1 NK Cells
KHYG-1 cells were washed and resuspended in RPMI+0.1% BSA at 4×10^5 cells/ml and 50 μl of KHYG-1 cells were dispensed to each well of a 96-well V-bottom plate. Test compounds were added to KHYG-1 cells at a concentration of 20 μM and incubated at RT for 20 minutes. 100 μL of RPMI 0.1% BSA was added and the cells were incubated for 4 hours at 37° C. then washed ×3 in RPMI+0.1% BSA. Cells were then resuspended in 200 μl of complete medium and incubated for 18 to 24 hours at 37° C. Trypan blue was added to each well and viable (clear) cells counted as a percentage of total (clear+blue) cell number (% viability).

A further data set deals with recombinant perforin (UniProt P10820). The class given is cell-based. As to conditions: read-out: Jurkat IC50; recombinant perforin pre-incubated 30 min with compound; 51Cr-labelled Jurkat cells, 0.1% BSA, 37° C. 4 hours. The protocol: Inhibition of Perforin-Mediated Lysis of Jurkat Cells
The ability of the compounds to inhibit the lysis of nucleated (Jurkat T lymphoma) cells in the presence of 0.1% BSA, as measured by release of ^51Cr was measured. Jurkat target cells were labelled by incubation in medium with 100 μCi ^51Cr for one hour. The cells were then washed three times to remove unincorporated isotope and re-suspended at 1×10^5 cells per mL in RPMI buffer supplemented with 0.1% BSA. […] The supernatant was collected and assessed for its radioactive content on a gamma counter (Wallac Wizard 1470 automatic gamma counter). Each data point was performed in triplicate and an IC50 was calculated from the range of concentrations described to above.

Each structure is given as a SMILES string.

recombinant perforin, sequence (P10820 whole entry): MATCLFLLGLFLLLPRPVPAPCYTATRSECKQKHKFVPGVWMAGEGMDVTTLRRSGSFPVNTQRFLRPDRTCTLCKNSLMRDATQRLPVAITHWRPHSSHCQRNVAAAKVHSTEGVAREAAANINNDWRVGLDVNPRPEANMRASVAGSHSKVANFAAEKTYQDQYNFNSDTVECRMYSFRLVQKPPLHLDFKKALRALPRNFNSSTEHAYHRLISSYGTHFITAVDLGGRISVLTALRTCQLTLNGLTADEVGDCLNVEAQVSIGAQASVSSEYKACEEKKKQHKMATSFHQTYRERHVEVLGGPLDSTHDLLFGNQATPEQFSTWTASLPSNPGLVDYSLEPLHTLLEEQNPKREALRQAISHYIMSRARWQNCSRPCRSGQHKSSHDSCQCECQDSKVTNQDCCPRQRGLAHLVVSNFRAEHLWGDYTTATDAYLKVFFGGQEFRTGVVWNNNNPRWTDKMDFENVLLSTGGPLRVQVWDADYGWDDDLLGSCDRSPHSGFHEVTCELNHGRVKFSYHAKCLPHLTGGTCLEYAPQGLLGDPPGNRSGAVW

For the molecule `O=C1NC(=S)N/C1=C/c1ccc(-c2ccc3c(c2)COC3=O)o1` [Cmpd 1, (E,Z)-5-((5-(1-Oxo-1,3-dihydroisobenzofuran-5-yl)furan-2-yl)methylene)-2-thioxoimidazolidin-4-one], the melting point was > 300 °C. The inhibition at 20 µM in data set [1] came out at 95%. Moreover, the “percent viable KHYG-1 cells (trypan blue) at 20 μM” value (“percent viable KHYG-1 cells” for short) in the data set on KHYG-1 NK cells was 66%.

As to `O=C1NC(=O)/C(=C\c2ccc(-c3ccc4c(c3)COC4=O)s2)N1` [Cmpd 3, (E,Z)-5-((5-(1-Oxo-1,3-dihydroisobenzofuran-5-yl)thiophen-2-yl)methylene)imidazolidine-2,4-dione], the melting point was > 300 °C. For the same molecule, testing at 20 µM in data set [1] gave an inhibition of 70%. For the same molecule, in the data set with KHYG-1 NK cells, the “percent viable KHYG-1 cells” value is given as 82%.

`[H]/N=C1/NC(=O)/C(=C\c2ccc(-c3ccc4c(c3)COC4=O)s2)N1C` [Cmpd 4, (E,Z)-2-Imino-1-methyl-5-((5-(1-oxo-1,3-dihydroisobenzofuran-5-yl)thiophen-2-yl)methylene)imidazolidin-4-one]: the melting point was > 300 °C. The molecule also showed an inhibition at 20 µM in data set [1] of 50%. The “percent viable KHYG-1 cells” value with KHYG-1 NK cells was 100%.

`O=C1NC(=S)N/C1=C\c1cccc(-c2ccc3c(c2)COC3=O)c1` [Cmpd 5, (E,Z)-5-(3-(1-Oxo-1,3-dihydroisobenzofuran-5-yl)benzylidene)-2-thioxoimidazolidin-4-one] returned a melting point of 285 to 288 °C. The molecule further showed an inhibition at 20 µM in data set [1] of 64%. Moreover, the “percent viable KHYG-1 cells” value in the data set on KHYG-1 NK cells is listed as 97%.

In the case of `O=C1NC(=S)N/C1=C\c1ccc(-c2ccc3c(c2)COC3=O)cc1` [Cmpd 6, (E,Z)-5-(4-(1-Oxo-1,3-dihydroisobenzofuran-5-yl)benzylidene)-2-thioxoimidazolidin-4-one], the melting point was > 300 °C. The molecule further returned an inhibition at 20 µM in data set [1] of 50%. In addition, the “percent viable KHYG-1 cells” value in the data set with KHYG-1 NK cells was 95%.

In the case of `O=C1NC(=S)N/C1=C\c1ccc(-c2ccc3c(c2)COC3=O)cn1` [Cmpd 8, (E,Z)-5-((5-(1-oxo-1,3-dihydroisobenzofuran-5-yl)pyridin-2-yl)methylene)-2-thioxoimidazolidin-4-one], the melting point is > 300 °C. Also, the inhibition at 20 µM in data set [1] worked out at 57%. Also, the “percent viable KHYG-1 cells” value with KHYG-1 NK cells is reported as 96%.

As for `O=C1NC(=S)N/C1=C\c1csc2ccc(-c3ccc4c(c3)COC4=O)cc12` [Cmpd 9], the melting point is > 300 °C. Further, in data set [1], the inhibition at 20 µM was 80%. Also, the “percent viable KHYG-1 cells” value with KHYG-1 NK cells turned out to be 0%.

Turning to `O=C1NC(=S)N/C1=C/c1cc(-c2ccc3c(c2)COC3=O)cs1` [Cmpd 15, (E,Z)-5-((4-(1-Oxo-1,3-dihydroisobenzofuran-5-yl)thiophen-2-yl)methylene)-2-thioxoimidazolidin-4-one], the melting point is > 300 °C. For the same molecule, the inhibition at 20 µM in data set [1] is 67%. Moreover, in the data set with KHYG-1 NK cells, the “percent viable KHYG-1 cells” value was found to be 96%.

Turning to `O=C1NC(=S)N/C1=C/c1ccc(-c2cccnc2)s1` [Cmpd 26, (E,Z)-5-((5-(Pyridin-3-yl)thiophen-2-yl)methylene)-2-thioxoimidazolidin-4-one], the melting point was > 295 °C. Moreover, the IC50 on recombinant perforin is 12900 nM.

Regarding `O=C1C/C(=C/c2ccc(-c3ccc4c(c3)COC4=O)s2)C(=O)N1` [Cmpd 36, (E,Z)-3-((5-(1-Oxo-1,3-dihydroisobenzofuran-5-yl)thiophen-2-yl)methylene)pyrrolidine-2,5-dione], the melting point is > 295 °C. The same molecule came in with an inhibition at 20 µM in data set [1] of 51%. In addition, in the data set with KHYG-1 NK cells, the “percent viable KHYG-1 cells” value came out at 65%.

`O=C1NCC/C1=C\c1ccc(-c2ccc3c(c2)COC3=O)s1` [Cmpd 37, (E,Z)-3-((5-(1-Oxo-1,3-dihydroisobenzofuran-5-yl)thiophen-2-yl)methylene)pyrrolidin-2-one] returned a melting point of 224 to 227 °C. For the same molecule, in data set [1], at 20 µM the inhibition was 20%. In the data set with KHYG-1 NK cells, the “percent viable KHYG-1 cells” value is 97%.

In the case of `O=C1NC(=S)N/C1=C\c1cccc(-c2ccc3c(c2)CNC3=O)c1` [Cmpd 49, (E,Z)-5-(3-((5-Oxo-2-thioxoimidazolidin-4-ylidene)methyl)phenyl)isoindolin-1-one], the melting point was > 300 °C. This molecule gave an inhibition at 20 µM in data set [1] of 8%. Moreover, at recombinant perforin, the IC50 turned out to be 3440 nM.

Consider `O=C1NC(=S)N/C1=C/c1cc(-c2ccc3c(c2)CNC3=O)cs1` [Cmpd 50, (E,Z)-5-(5-((5-Oxo-2-thioxoimidazolidin-4-ylidene)methyl)thiophen-3-yl)isoindolin-1-one], for which the melting point is > 300 °C. In data set [1], 20 µM produced 42% inhibition. The IC50 on recombinant perforin amounted to 3000 nM.

Take `O=C1NC(=S)N/C1=C/c1ccc(-c2ccc3c(c2)COC3=O)[nH]1` [Cmpd 53, (E,Z)-5-((5-(1-Oxo-1,3-dihydroisobenzofuran-5-yl)-1H-pyrrol-2-yl)methylene)-2-thioxoimidazolidin-4-one]: the melting point was > 300 °C. This molecule also returned an inhibition at 20 µM in data set [1] of 30%. Further, the IC50 at recombinant perforin worked out at 2450 nM.

Turning to `O=C1NC(=S)N/C1=C\c1nc(-c2ccc3c(c2)COC3=O)cs1` [Cmpd 56, (E,Z)-5-((4-(1-Oxo-1,3-dihydroisobenzofuran-5-yl)thiazol-2-yl)methylene)-2-thioxoimidazolidin-4-one], the melting point is > 295 °C. Besides, the IC50 at recombinant perforin is 1410 nM.

Consider `O=C1NC(=S)N/C1=C\c1csc(-c2ccc3c(c2)COC3=O)n1` [Cmpd 57, (E,Z)-5-((2-(1-Oxo-1,3-dihydroisobenzofuran-5-yl)thiazol-4-yl)methylene)-2-thioxoimidazolidin-4-one], for which the melting point was > 295 °C. For the same molecule, the IC50 at recombinant perforin worked out at 340 nM.

In the case of `O=C1NC(=S)N/C1=C\c1cc(-c2ccc3c(c2)COC3=O)ns1` [Cmpd 60, (E,Z)-5-((3-(1-Oxo-1,3-dihydroisobenzofuran-5-yl)isothiazol-5-yl)methylene)-2-thioxoimidazolidin-4-one], the melting point is > 300 °C. For the same molecule, the inhibition at 20 µM in data set [1] was found to be 45%. Also, the IC50 on recombinant perforin is 1440 nM.

The molecule `O=C1NC(=S)N/C1=C/c1ccc(-c2ccc3c(c2)CN(CCCN2CCCCC2)C3=O)s1` [Cmpd 75, (E,Z)-5-(5-((5-Oxo-2-thioxoimidazolidin-4-ylidene)methyl)thiophen-2-yl)-2-(3-(piperidin-1-yl)propyl)isoindolin-1-one] showed an inhibition at 20 µM in data set [1] of 61%. On recombinant perforin, the IC50 was 11800 nM. Further, in the data set on KHYG-1 NK cells, the “percent viable KHYG-1 cells” value is reported as 85%.

`CN1CCN(CCCN2Cc3cc(-c4ccc(/C=C5/NC(=S)NC5=O)s4)ccc3C2=O)CC1` [Cmpd 76, (E,Z)-2-(3-(4-Methylpiperazin-1-yl)propyl)-5-(5-((5-oxo-2-thioxoimidazolidin-4-ylidene)methyl)thiophen-2-yl)isoindolin-1-one] came in with a melting point of 197 to 201 °C. For the same molecule, testing at 20 µM in data set [1] gave an inhibition of 58%. Besides, the IC50 at recombinant perforin was > 20000 nM.

In data set [1], `O=C1NC(=S)N/C1=C/c1ccc(-c2ccc3c(c2)CN(CCCN2CCCC2)C3=O)s1` [Cmpd 77, (E,Z)-5-(5((5-Oxo-2-thioxoimidazolidin-4-ylidene)methyl)thiophen-2-yl)-2-(3-(pyrrolidin-1-yl)propyl)isoindolin-1-one] gave an inhibition at 20 µM of 81%. Also, the IC50 on recombinant perforin was > 20000 nM. The “percent viable KHYG-1 cells” value in the data set with KHYG-1 NK cells came out at 80%.

As for `O=C1NC(=S)N/C1=C\c1ccc(-c2ccc3c(c2)C(=O)NCC3)s1` [Cmpd 81, (E,Z)-7-(5-((5-Oxo-2-thioxoimidazolidin-4-ylidene)methyl)thiophen-2-yl)-3,4-dihydroisoquinolin-1(2H)-one], at 20 µM the inhibition in data set [1] was 62%. Also, on recombinant perforin, the 50% inhibitory concentration (IC50) was 670 nM. In addition, the “percent viable KHYG-1 cells” value in the data set with KHYG-1 NK cells was found to be 88%.

For the molecule `O=C1NC(=S)N/C1=C\c1ccc(-c2ccc3c(c2)CCNC3=O)s1` [Cmpd 82, (E,Z)-6-(5-((5-Oxo-2-thioxoimidazolidin-4-ylidene)methyl)thiophen-2-yl)-3,4-dihydroisoquinolin-1(2H)-one], the inhibition at 20 µM in data set [1] worked out at 92%. The IC50 on recombinant perforin amounted to 1140 nM. For the same molecule, the “percent viable KHYG-1 cells” value with KHYG-1 NK cells worked out at 80%.

Broadly, the melting point is the temperature of the solid-liquid transition. A word on the inhibition: it is the relative decrease from the control value, in per cent. The term IC50 denotes the midpoint of a concentration-inhibition curve.

Source of the values: US20130065897A1, “COMPOUNDS, PREPARATION AND USES THEREOF” (PETER MACCALLUM CANCER INSTITUTE, priority 2009, published 2013).
